For 2 molecules, IC50 results are on record in patent US10202366B2, “Methods of promoting wound healing using CRM1 inhibitors” (Karyopharm Therapeutics Inc., priority 2013, dated 2019).

The test system of this assay is MM1.S cells. Put plainly: MTT cell proliferation assay. The assay is classed as cell-based. As to conditions: Homo sapiens. How it is done:
The MTT cell proliferation assay was used to study the cytotoxic properties of certain compounds. The assay was performed according to the method described by Roche Molecular Biochemicals, with minor modifications. The assay is based on the cleavage of the tetrazolium salt, MTT, in the presence of an electron-coupling reagent. The water-insoluble formazan salt produced must be solubilized in an additional step. Cells grown in a 96-well tissue culture plate were incubated with the MTT solution for approximately 4 hours. After this incubation period, a water-insoluble formazan dye formed. After solubilization, the formazan dye was quantitated using a scanning multi-well spectrophotometer (ELISA reader). […] The cells were seeded at 5,000-10,000 cells in each well of 96-well plate in 100 μL of fresh culture medium and were allowed to attach overnight. The stock solutions of the compounds were diluted in 100 μL cell culture medium to obtain eight concentrations of each test compound, ranging from 1 nM to 30 μM. […] All optical densities were measured at 490 nm using a Vmax Kinetic Microplate Reader (Molecular Devices). In most cases, the assay was performed in duplicate and the results were presented as a mean percent inhibition to the negative control±SE. The following formula was used to calculate the percent of inhibition: Inhibition (%)=(1−(ODo/OD))×100. […]

As to `CC(C)Oc1cc(-c2ncn(/C=C\C(=O)OCc3cnccn3)n2)cc(C(F)(F)F)c1` [Compound 130, Pyrazin-2-Ylmethyl (Z)-3-(3-(3-Isopropdxy-5-(Trifluoromethyl)Phenyl)-1h-1,2,4-Triazol-1-Yl)Acrylate], the IC50 (as a rule, the concentration at which inhibition is half-maximal) was 4 nM.
As for `CC(C)Oc1cc(-c2ncn(/C=C\C(=O)OCc3cncnc3)n2)cc(C(F)(F)F)c1` [Compound 129, Pyrimidin-5-Ylmethyl (Z)-3-(3-(3-Isopropoxy-5-(Trifluoromethyl)Phenyl)-1H-1,2,4-Triazol-1-Yl)Acrylate], the figure is 20 nM.
